Measured values from US6733998B1, “Micromonospora echinospora genes coding for biosynthesis of calicheamicin and self-resistance thereto” (priority 1998, dated 2004).

Experiments:
HT1080 (human) cell line = test: Calicheamicin resistance on transgenic expression of calC in HT1080 cell line; format: cell-based
Excerpt: The present invention provides for the transformation of human cells with the calC gene. The transgenic expression of calC in the HT1080 (human) cell line increased its resistance to calicheamicin 10-fold. This technique allows bone marrow cells, for example, to be removed from a patient being treated with calicheamicin, and for these cells to be transformed with calC, and for the transformed cells to be returned to the patient. This allows the patient to tolerate treatment with calicheamicin or allows the patient to receive higher doses of calicheamicin as the returned human-calC-transformed cells have calicheamicin resistance. The transformation is performed by methods known in the art. The embodiment of the invention would be applicable to many diseases being treated with calicheamicin.

S. lividans = test: Calicheamicin resistance on transgenic expression of calC in S. lividans; format: cell-based
Excerpt: (§1) DNA containing calC was cloned into an inducible vector, using known methods, resulting in overexpression of calC. The polypeptide product (CalC) was then isolated and purified to homogeneity. […] Another aspect of the invention is an expression vector containing calC or a fragment of calC coding for a bioactive molecule. There is also provided a transformed host cell, preferably bacteria, more preferably E. coli, containing calC or a fragment of calC coding for a bioactive molecule. Such transgenic expression of calC results in an 10^5-fold increase in calicheamicin resistance in E. coli, a 100-fold increase in resistance in S. lividans, and a 50-fold increase in resistance in yeast.

CalC = test: Interaction of calicheamicin with CalC measured by CalC tryptophan fluorescence; format: binding, Micromonospora echinospora
Excerpt: CalC has 5 tryptophan and no cysteine residues and is unaffected by the reductive activator dithiothreitol (DTT). As the concentration of calicheamicin (3) increases in the absence of DTT there is little change in the CalC Trp fluorescence intensity.

[1] = tested on: break light B (BamHI recognition sequence 5′-GGATCC-3′); test: Molecular break light assay, break light B; format: biochemical
Excerpt: (§2) The invention further provides for a method of assaying the calicheamicin-induced DNA cleavage and its CalC-mediated inhibition using the molecular break light assay. Two molecular break lights (MLBs) for the experiments are described in example 7. Break light A is comprised of a 10-base pair stem which contained the known calicheamicin recognition sequence 5′-TCCT-3′, while break light B carries the BamHI endonuclease recognition sequence 5′-GGATCC-3′. The 5′-fluorophore of both probes was fluorescein (FAM, absorbancemax=485 nm, emissionmax=517 nm) while the corresponding 3′-quencher was 4-(4′-dimethylaminophenylazo)benzoic acid (DABCYL). Generally, MLBs operate by a separation of the fluorophore-quencher pair resulting a corresponding fluorescent signal.
The invention further provides for a method of assaying the calicheamicin-induced DNA cleavage and its CalC mediated inhibition using the molecular break light assay. Break light A was comprised of a 10-base pair stem which contained the known calicheamicin recognition sequence 5′-TCCT-3′, while break light B carried the BamHI endonuclease recognition sequence 5′-GGATCC-3′. […] The loop of both probes consisted of a T4 loop to ensure non-hybridizing interactions. The 5′-fluorophore of both probes was fluorescein (FAM, absorbancemax=485 nm, emissionmax=517 nm) while the corresponding 3′-quencher was 4-(4′-dimethylaminophenylazo)benzoic acid (DABCYL). […]
(§3) Enzymalic Cleavage as Proof of Principle. […] In comparison, control samples containing break lights alone or break lights in the presence of BSA gave no change in fluorescence over >2 hr at 37° C. Given the lack of fluorescence in the absence of enzyme, the designed break lights show no appreciable melting at the designated assay temperature.
Consistent with this finding, PAGE analysis of the reaction products confirmed the presence of a […] after excess treatment with BamHI which is completely degraded upon DNaseI digestion. As a result, the fluorescence maxium observed with excess BamHI was designated 100% cleavage for the BamHI kinetic studies described below. […]

yeast = test: Calicheamicin resistance on transgenic expression of calC in yeast; format: cell-based
Excerpt: as §1

[2] = tested on: break light A (calicheamicin recognition sequence 5′-TCCT-3′); test: Molecular break light assay, break light A; format: biochemical; conditions: for Maximum fluorescence obtained upon cleavage of break light A: excess DTT
Excerpt: as §2
The invention further provides for a method of assaying the calicheamicin-induced DNA cleavage and its CalC mediated inhibition using the molecular break light assay. Break light A was comprised of a 10-base pair stem which contained the known calicheamicin recognition sequence 5′-TCCT-3′, while break light B carried the BamHI endonuclease recognition sequence 5′-GGATCC-3′. […] The loop of both probes consisted of a T4 loop to ensure non-hybridizing interactions. The 5′-fluorophore of both probes was fluorescein (FAM, absorbancemax=485 nm, emissionmax=517 nm) while the corresponding 3′-quencher was 4-(4′-dimethylaminophenylazo)benzoic acid (DABCYL). Previous studies have shown DABCYL to serve as a universal quencher in molecular beacons and there is significant spectral overlap (1.02×10^−15 M^−1 cm^3) between the emission spectrum of FAM and the absorption spectrum of DABCYL.
as §3, with “Principle. […] Specifically, only break light B should cleave in the presence of the restriction endonuclease BamHI while both A and B should be digested by the non-specific nuclease DNaseI.” for “Principle.”
Enediyne-Catalyzed Cleavage. Previous assays for enediyne cleavage of DNA relied upon discontinuous assays using radioactive DNA probes, electrophoresis and subsequent phosphoimager analysis. In contrast, by using break lights one can directly follow the extent of DNA cleavage by a specific enediyne in real time with high sensitivity. […] Under the conditions described, this assay allows the detection of 1 in the pM range. This sensitivity compares to that of the biochemical induction assay (BIA), the method of choice in detecting DNA-damaging agents. […] This supports the view that the specificity of 1 is more dependent upon context and perhaps less so on DNA sequence. It should also be noted that 1 leads to predominately double-stranded cleavage while 2 provides single-stranded nicks and the current molecular break light assay can not distinguish these two phenomena.
CalC inhibits calicheamicin mediated DNA cleavage. […] 3.6 pM break light A is coincubated with 3.5 nM calicheamicin with increasing amounts of CalC (0.0 nm, 1.3 nm, 2.6 nm, 3.9 nm, 5.2 nm). Complete inhibition of calicheamicin is achieved with roughly 2-fold excess of CalC. CalC has no effect on esperamicin-induced cleavage of DNA (data not shown).

[3] = tested on: supercoiled pBlusecript plasmid DNA; test: In vitro calicheamicin-induced DNA cleavage assay (agarose gel); format: biochemical
Method: To test this theory, preliminary assays were performed with supercoiled pBlusecript plasmid DNA (“pBS”) as the template, and dithiothreitol (“DTT”) as the reductive initiator. In a typical assay, purified mbp-CalC (15.0 nM) and 30.0 nM calicheamicin were preincubated for 15 min. in a total volume of 25 μL 40 mM Tris-Cl, pH 7.5, at 37° C. Then 2.5 μL 10 mM DTT stock solution was added to the assay solution, and the assay was incubated an additional 1 hour at 37° C. DNA fragmentation was assessed by electrophoresis on a 1% agarose gel stained with ethidium bromide.
Reconstitution of apo-mbp-CalC was accomplished by preincubation with 1 mM FeSO4 (Fe^+2) or FeCl3 (Fe^+3) prior to the activity assay as previously described.

E. coli [4] = test: Calicheamicin resistance on transgenic expression of calC in E. coli; format: cell-based
Excerpt: as §1

E. coli [5] = test: Growth of cosmid/plasmid-carrying clones on LB plates containing calicheamicin (maximum tolerated concentration); format: cell-based; conditions: for Maximum tolerated concentration of calicheamicin: LB plates
Method: To isolate the gene(s) responsible for calicheamicin resistance in Micromonospora, clones conferring calicheamicin resistance were selected by growth of a Micromonospora genomic bifunctional cosmid library on LB plates containing ampicillin (50 μg ml^−1) and calicheamicin (0.25 μg ml^−1). […] Restriction mapping of these clones localized the desired phenotype to a ˜2kb PstI-SacI fragment of DNA. (FIG. 2). Maximum tolerated concentrations of calicheamicin on the LB plates was ascertained. The results are as follows:
The proximal 1 kb of this fragment carried the single orf calD while the distal 1 kb presented orf calC. […] Therefore, it was hypothesized that calD was not responsible for calicheamicin resistance. To rule out calD as being responsible for calicheamicin resistance, a subclone was engineered (pJT1224) to contain an intact calD, but the truncated calC gene. This subclone was not able to confer resistance to calicheamicin. Next, a subclone containing the calC region was constructed (pJT1232). This clone conferred calicheamicin resistance, as indicated in the above chart.
To ascertain the amino acid sequence of CalC and learn its properties, calC was cloned into a pMAL-C2 vector. (pMAL-C2 by itself could not confer calicheamicin resistance. See above chart.) The resulting plasmid, pRE7, which contained calC, conferred resistance to calicheamicin. See above chart. Plasmid pRE7 was then induced with isopropyl Beta-D-thiogalactoside (“IPTG”) to overexpress CalC. Induced pRE7 conferred resistance to calicheamicin and produced a maltose-binding protein CalC fusion protein (mbp-CalC). This resulting overexpression of CalC increased calicheamicin resistance 10^2-fold in vivo. See above chart.

calicheamicin
Increase in resistance to calicheamicin on transgenic expression of calC (HT1080 (human) cell line): 10 fold
Increase in calicheamicin resistance on transgenic expression of calC (S. lividans): 100 fold
Binding to CalC (CalC Trp fluorescence intensity) (CalC; addition of DTT to activate calicheamicin): increased binding
Change in CalC Trp fluorescence intensity (CalC; increasing calicheamicin concentration, absence of DTT): little change
Rate of cleavage of molecular break light B compared with break light A [1]: identical rate
Increase in calicheamicin resistance on transgenic expression of calC (yeast): 50 fold
Maximum fluorescence obtained upon cleavage of break light A ([2]; 3.2 nM break light A, 37° C.): identical to that observed with DNaseI
DNA cleavage ([3]; in the absence of DTT): no DNA cleavage
DNA cleavage ([3]; in the presence of DTT and calicheamicin): efficient cleavage
Increase in calicheamicin resistance on transgenic expression of calC (E. coli [4]): 10^5 fold
Maximum tolerated concentration of calicheamicin (E. coli [5]; cosmids 3a, 4a, 10a, 13a, and 16a): 0.5 µg/mL
Maximum tolerated concentration of calicheamicin (E. coli [5]; induced pRE7 (IPTG)): 50.0 µg/mL
Maximum tolerated concentration of calicheamicin (E. coli [5]; pJT1214 and pJT1232): 5.0 µg/mL
Maximum tolerated concentration of calicheamicin (E. coli [5]; pJT1224, pAP6, Pre1, and control plasmids pUC18, pBluescript, and pMAL-C2): <0.01 µg/mL
Maximum tolerated concentration of calicheamicin (E. coli [5]; pRE7 (calC in pMAL-C2)): 20.0 µg/mL
Increase in calicheamicin resistance on overexpression of CalC (E. coli [5]; induced pRE7, in vivo): 10^2 fold

esperamicin
Maximum fluorescence obtained upon cleavage of break light A ([2]; 3.2 nM break light A, 37° C.): identical to that observed with DNaseI

B1: BamHI: restriction endonuclease (protein, UniProt P23940 1-213, looked up)
Type II restriction enzyme …: MEVEKEFITDEAKELLSKDKLIQQAYNEVKTSICSPIWPATSKTFTINNTEKNCNGVVPIKELCYTLLEDTYNWYREKPLDILKLEKKKGGPIDVYKEFIENSELKRVGMEFETGNISSAHRSMNKLLLGLKHGEIDLAIILMPIKQLAYYLTDRVTNFEELEPYFELTEGQPFIFIGFNAEAYNSNVPLIPKGSDGMSKRSIKKWKDKVENK
Change of fluorescence over time ([1]; 3.2 nM break light B, 37° C.): increase of fluorescence
Fluorescence maximum intensity upon complete cleavage, relative to that observed with DNaseI ([1]; same concentration of molecular break light): 75%
Change of fluorescence over time ([2]; 3.2 nM break light A, 37° C.): no change

B2: CalC: polypeptide conferring calicheamicin resistance, 181 amino acids, SEQ ID. NO. 2 (protein)
chain: MTQEKTAPAAKSTTTKSTAAKKPKPPNYDPFVRHSVTVKADRKTAFKTFLEGFPEWWPNNFRTTKVGAPLGVDKKGGRWYEIDEQGEEHTFGLIRKVDEPDTLVIGWRLNGFGRIDPDNSSEFTVTFVADGQKKTRVDVEHTHFDRMGTKHAKRVRNGMDKGWPTILQSFQDKIDEEGAKK
modifications: Bacteria
Effect on esperamicin-induced cleavage of DNA [2]: no effect
Excess of CalC giving complete inhibition of calicheamicin-mediated DNA cleavage ([2]; 3.6 pM break light A, 3.5 nM calicheamicin): roughly 2 fold
Inhibition of calicheamicin mediated DNA cleavage ([2]; CalC in a two-fold molar excess of calicheamicin): completely abolishes
